Experimental data reported in PubChem BioAssay (NCI).
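These data come from cells grown in 96-well plates and exposed to compound for 48 hours at five concentrations. GI50: concentration for 50% inhibition of growth. The concentration for full growth arrest is given as TGI.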

What follows are molecules tested on SW-620 colon (assay: NCI tumour cell line growth inhibition, 48 h).

Structure (SMILES) | TGI [µM] | GI50 [µM]
C[C@@]1(O)CC[C@]2(C)C3CCCC3[C@H]12 (stereo partly specified) | > 100 | –
CC[C@@H](c1ccc(O)c(O)c1)[C@@H](CC)c1ccc(O)c(O)c1 | 5.67 | 2.4
CC(=O)[O-].CC(=O)[O-].O=C(N/N=C/c1cc(Cl)cc(Cl)c1O)c1ccncc1.[Cu+2] | > 100 | –
C#Cc1cccc(Nc2nc3cc([N+](=O)[O-])ccc3nc2Nc2ccc(O)cc2)c1 | 3.87 | 1.79
O=C(Nc1nc(=S)[nH][nH]1)C(=O)C(C(=O)c1ccc2ccccc2c1)C1OC(=O)c2ccccc21 (stereo unspecified) | > 100 | –
CN(C)CC(O)c1ccc(/C=C/c2ccc(Cl)cc2)cc1 (stereo unspecified) | 2.95 | 1.6
Cc1nnc2ccnn2c1C | > 100 | > 100
CCOC(=O)C1=C(C)N(NC(=O)Nc2ccccc2)C2(N)N(NC(=O)Nc3ccccc3)C(C)=C(C(=O)OCC)C12C(=O)OCC (stereo unspecified) | > 100 | –
CCCCCCCCCCSC(=N)N (tested in a mixture with another compound) | 4.7 | 2.1
O=C(O)CSc1n[nH]c(-c2ccccc2O)n1 | > 100 | –
Cc1nc(-c2nc(C)c(C(=O)NNC(=O)C[n+]3ccccc3)s2)sc1C(=O)NNC(=O)C[n+]1ccccc1 | > 100 | –
CN(C)C=Nc1nc(=O)n(C2CCC(CO)O2)cc1F (stereo unspecified) | > 100 | –
O=c1[nH]c(-c2ccccc2)nc2cc(Cl)ccc12 | > 100 | –
Cc1ccc(S(=O)(=O)N2CCC2c2ccccc2)cc1 (stereo unspecified) | > 100 | –
CCCOc1nc(N)c2cnn(C3CCCCO3)c2n1 (stereo unspecified) | > 100 | –
C/C(CN1C(=O)c2ccccc2C1=O)=N\NS(=O)(=O)c1ccc(Cl)cc1 | > 100 | –
O=C(Nc1cccc(C(F)(F)F)c1)Nc1cccc(C(F)(F)F)c1 | 6.88 | 0.798
COc1ccc(/C=C/COC(C)=O)cc1OC | > 100 | –

Structure (SMILES) | TGI [µM] | GI50 [µM]
C=C(C)C(=O)O[C@@H]1C[C@@]2(C)O[C@@H]2C[C@H](O)/C(C)=C/[C@H]2OC(=O)C(=C)[C@@H]21 | 38.9 | –
CC(=O)OC1(C)N=NC2(CCCCC2)O1 (stereo unspecified) | > 100 | –
Cc1ccc(-c2nc(N3CCNCC3)c3oc(-c4ccc(C)cc4)nc3n2)cc1 | 4.02 | 1.8
[O-][Cl+3]([O-])([O-])[O-].[O]=[Ru]=[O].c1ccc(-c2ccccn2)nc1.c1ccc(-c2ccccn2)nc1 | > 100 | > 100
Cc1ccc(NC2=C3CCCCC3OC2=O)cc1 (stereo unspecified) | > 100 | > 100
O=C1C(C(Nc2ccccc2)c2ccccc2)=C([O-])c2ccccc21.O=C1C(C(Nc2ccccc2)c2ccccc2)=C([O-])c2ccccc21.[Cu+2] (stereo unspecified) | > 100 | 42.6
CN(C)CC1CCC/C1=N/OC(=O)c1ccccc1 (stereo unspecified) | > 100 | –
CCOC(=O)C1Sc2ccccc2N=C1C (stereo unspecified) | > 100 | –
C/C=C/[C@@H]1O[C@@H]2COC(=O)C2=C[C@@H]1O | 5.07 | 2.13
O=C(NC1C=CCC2C(=O)N(c3ccccc3)C(=O)C12)OCc1ccccc1 (stereo unspecified) | > 100 | –
Cc1[cH-]c(=O)n(-c2ccccc2)n1.[Au+].[Au].c1ccc([PH+](c2ccccc2)c2ccccc2)cc1.c1ccc([PH+](c2ccccc2)c2ccccc2)cc1 | 81.4 | 26.9
CC(=O)OCc1ccc2c(c1)C(O)NC(=O)O2 (stereo unspecified) | > 100 | –
CC1(C)CC(c2c[nH]c3ccccc23)=CC2=Nc3ccccc3C21O (stereo unspecified) | > 100 | –
CN1C(=O)C(=O)N2c3ccc(Cl)cc3C3(c4ccccc4)N=CC12O3 (stereo unspecified) | 14.5 | –
COc1ccc(CN2C(=O)C(Cl)=C(Nc3cccc(C(F)(F)F)c3)C2=O)cc1 | 15.7 | 3.61
N#CCCC[Si]12OCCN(CCO1)CCO2 | > 100 | –
O=C(/C=C/c1c(O)ccc2ccccc12)c1ccc([N+](=O)[O-])cc1 | > 57.6 | –
CN1CCN(c2ccc(Nc3ncc(Cl)c(NC[C@@H]4CCCO4)n3)cc2)CC1 | > 100 | 0.538

What follows are molecules tested on NCI-H23 lung (assay: NCI tumour cell line growth inhibition, 48 h).

Structure (SMILES) | TGI [µM] | GI50 [µM]
C[C@@]1(O)CC[C@]2(C)C3CCCC3[C@H]12 (stereo partly specified) | > 100 | –
CC[C@@H](c1ccc(O)c(O)c1)[C@@H](CC)c1ccc(O)c(O)c1 | 31.8 | 14.2
CC(=O)[O-].CC(=O)[O-].O=C(N/N=C/c1cc(Cl)cc(Cl)c1O)c1ccncc1.[Cu+2] | > 100 | –
O=C(Nc1nc(=S)[nH][nH]1)C(=O)C(C(=O)c1ccc2ccccc2c1)C1OC(=O)c2ccccc21 (stereo unspecified) | 79.9 | –
CN(C)CC(O)c1ccc(/C=C/c2ccc(Cl)cc2)cc1 (stereo unspecified) | 3.19 | 1.62
CCOC(=O)C1=C(C)N(NC(=O)Nc2ccccc2)C2(N)N(NC(=O)Nc3ccccc3)C(C)=C(C(=O)OCC)C12C(=O)OCC (stereo unspecified) | > 100 | –
CCCCCCCCCCSC(=N)N (tested in a mixture with another compound) | 25.9 | 11.1
O=C(O)CSc1n[nH]c(-c2ccccc2O)n1 | > 100 | –
Cc1nc(-c2nc(C)c(C(=O)NNC(=O)C[n+]3ccccc3)s2)sc1C(=O)NNC(=O)C[n+]1ccccc1 | > 100 | –
CN(C)C=Nc1nc(=O)n(C2CCC(CO)O2)cc1F (stereo unspecified) | > 100 | –
O=c1[nH]c(-c2ccccc2)nc2cc(Cl)ccc12 | > 100 | –
Cc1ccc(S(=O)(=O)N2CCC2c2ccccc2)cc1 (stereo unspecified) | > 100 | –
CCCOc1nc(N)c2cnn(C3CCCCO3)c2n1 (stereo unspecified) | > 100 | –
C/C(CN1C(=O)c2ccccc2C1=O)=N\NS(=O)(=O)c1ccc(Cl)cc1 | > 100 | –
O=C(Nc1cccc(C(F)(F)F)c1)Nc1cccc(C(F)(F)F)c1 | 1.97 | 0.349
COc1ccc(/C=C/COC(C)=O)cc1OC | > 100 | –
C=C(C)C(=O)O[C@@H]1C[C@@]2(C)O[C@@H]2C[C@H](O)/C(C)=C/[C@H]2OC(=O)C(=C)[C@@H]21 | > 100 | –

Structure (SMILES) | TGI [µM] | GI50 [µM]
CC(=O)OC1(C)N=NC2(CCCCC2)O1 (stereo unspecified) | > 100 | –
[O-][Cl+3]([O-])([O-])[O-].[O]=[Ru]=[O].c1ccc(-c2ccccn2)nc1.c1ccc(-c2ccccn2)nc1 | > 100 | > 100
Cc1ccc(NC2=C3CCCCC3OC2=O)cc1 (stereo unspecified) | > 100 | 60.5
O=C1C(C(Nc2ccccc2)c2ccccc2)=C([O-])c2ccccc21.O=C1C(C(Nc2ccccc2)c2ccccc2)=C([O-])c2ccccc21.[Cu+2] (stereo unspecified) | > 100 | 24.9
CN(C)CC1CCC/C1=N/OC(=O)c1ccccc1 (stereo unspecified) | > 100 | –
CCOC(=O)C1Sc2ccccc2N=C1C (stereo unspecified) | > 100 | –
C/C=C/[C@@H]1O[C@@H]2COC(=O)C2=C[C@@H]1O | 37.3 | 14.1
O=C(NC1C=CCC2C(=O)N(c3ccccc3)C(=O)C12)OCc1ccccc1 (stereo unspecified) | > 100 | –
Cc1[cH-]c(=O)n(-c2ccccc2)n1.[Au+].[Au].c1ccc([PH+](c2ccccc2)c2ccccc2)cc1.c1ccc([PH+](c2ccccc2)c2ccccc2)cc1 | 46.1 | 9.75
CC(=O)OCc1ccc2c(c1)C(O)NC(=O)O2 (stereo unspecified) | > 100 | –
CC1(C)CC(c2c[nH]c3ccccc23)=CC2=Nc3ccccc3C21O (stereo unspecified) | > 100 | –
CN1C(=O)C(=O)N2c3ccc(Cl)cc3C3(c4ccccc4)N=CC12O3 (stereo unspecified) | 15.5 | –
COc1ccc(CN2C(=O)C(Cl)=C(Nc3cccc(C(F)(F)F)c3)C2=O)cc1 | 42.4 | 8.08
N#CCCC[Si]12OCCN(CCO1)CCO2 | > 100 | –
O=C(/C=C/c1c(O)ccc2ccccc12)c1ccc([N+](=O)[O-])cc1 | 60.3 | –
CN1CCN(c2ccc(Nc3ncc(Cl)c(NC[C@@H]4CCCO4)n3)cc2)CC1 | 11.6 | 0.987

What follows are molecules tested on ACHN renal (assay: NCI tumour cell line growth inhibition, 48 h).

Structure (SMILES) | TGI [µM] | GI50 [µM]
C[C@@]1(O)CC[C@]2(C)C3CCCC3[C@H]12 (stereo partly specified) | > 100 | –
CC[C@@H](c1ccc(O)c(O)c1)[C@@H](CC)c1ccc(O)c(O)c1 | 4.03 | 1.94
CC(=O)[O-].CC(=O)[O-].O=C(N/N=C/c1cc(Cl)cc(Cl)c1O)c1ccncc1.[Cu+2] | > 100 | –
C#Cc1cccc(Nc2nc3cc([N+](=O)[O-])ccc3nc2Nc2ccc(O)cc2)c1 | 4.01 | 1.61
O=C(Nc1nc(=S)[nH][nH]1)C(=O)C(C(=O)c1ccc2ccccc2c1)C1OC(=O)c2ccccc21 (stereo unspecified) | > 100 | –
CN(C)CC(O)c1ccc(/C=C/c2ccc(Cl)cc2)cc1 (stereo unspecified) | 3.01 | 1.63
Cc1nnc2ccnn2c1C | > 100 | > 100
CCOC(=O)C1=C(C)N(NC(=O)Nc2ccccc2)C2(N)N(NC(=O)Nc3ccccc3)C(C)=C(C(=O)OCC)C12C(=O)OCC (stereo unspecified) | > 100 | –
Cn1cc(-c2cc3c(N4CCN(c5ncc([C@@](C)(N)c6ccc(F)cc6)cn5)CC4)ncnn3c2)cn1 | > 100 | 3.26
CCCCCCCCCCSC(=N)N (tested in a mixture with another compound) | 10.1 | 2.86
O=C(O)CSc1n[nH]c(-c2ccccc2O)n1 | > 100 | –
